Measurements as given in patent US5462933A, “Modified bile acid conjugates, and their use as pharmaceuticals” (Hoechst Aktiengesellschaft, priority 1989, dated 1995).

Target: T1, Na+-dependent bile acid transport system (Oryctolagus cuniculus, UniProt Q28727)
T1 construct: brush-border membrane vesicles from the ileum of rabbits; from tissue; host or cells: terminal ileum of male New Zealand rabbits, brush-border membrane vesicles
T1 sequence (Q28727 1-347): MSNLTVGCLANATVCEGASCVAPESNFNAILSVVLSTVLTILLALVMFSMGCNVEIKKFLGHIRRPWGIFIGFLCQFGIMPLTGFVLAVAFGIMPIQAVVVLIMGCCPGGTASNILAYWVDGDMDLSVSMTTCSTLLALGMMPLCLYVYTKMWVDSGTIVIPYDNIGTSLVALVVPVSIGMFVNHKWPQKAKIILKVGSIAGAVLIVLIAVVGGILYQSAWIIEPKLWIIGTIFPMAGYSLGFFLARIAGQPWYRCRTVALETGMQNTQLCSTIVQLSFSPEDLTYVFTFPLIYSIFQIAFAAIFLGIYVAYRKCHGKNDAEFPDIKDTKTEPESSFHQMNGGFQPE
Assay: Inhibition of Na+-dependent [3H]taurocholate absorption into brush-border membrane vesicles of the ileum
Assay type: biochemical, rabbit
Procedure: The preparation of brush-border membrane vesicles from the intestinal cells of the small intestine was carried out using the so-called Mg^2+ precipitation method. Male New Zealand rabbits (2-2.5 kg body weight) were sacrificed by intravenous injection of 0.5 ml of T-61^R. The small intestine was removed and rinsed with ice-cold physiological saline solution. The terminal 3/10 of the small intestine (measured in the oral-rectal direction, i.e. the terminal ileum, which contains the active Na^+ -dependent bile acid transport system) were used for preparation of the brush-border membrane vesicles. The intestines were frozen at -80° C. under nitrogen in plastic bags. The frozen intestines were thawed in a water bath at 30° C. in order to prepare the membrane vesicles. The mucosa was scraped off and suspended in 60 ml of ice-cold 12 mM trys/HCl buffer (pH 7.1)/300 mM mannitol, 5 mM EGTA/10 mg/l of phenylmethylsulfonyl fluoride/1 mg/l of soybean trypsin inhibitor (32 U/mg)/0.5 mg/l of bovine lung trypsin inhibitor (193 U/mg)/5 mg/l of bacitracin. After diluting to 300 ml with ice-cold distilled water, the suspension was homogenized with ice-cooling for 3 minutes at 75% of maximum power using an Ultraturrax (18 rod, IKA Werk Staufen, Federal Republic of Germany). After addition of 3 ml of 1M MgCl2 solution (final concentration 10 mM), the homogenate was allowed to stand at 0° C. for exactly 1 minute. As a result of addition of Mg^2+, the cell membranes aggregate and precipitate with the exception of the brush-border membranes. After centrifugation at 3,000×g (5,000 rpm, SS-34 rotor) for 15 minutes, the precipitate is discarded and the supernatant which contains the brush-border membranes is centrifuged at 26,700×g (15,000 rpm, SS-34 rotor) for 30 minutes. The supernatant was discarded, and the precipitate was rehomogenized in 60 ml of 12 mM tris/HCl buffer (pH 7.1)/60 mM mannitol, 5 mM EGTA using a Potter Elvejhem homogenizer (Braun Melsungen, 900 rpm, 10 strokes). After addition of 0.1 ml of 1M MgCl2 solution and an incubation time of 15 minutes at 0° C., the mixture was again centrifuged at 3,000×g for 15 minutes. The supernatant was then again centrifuged at […] (15,000 rpm, SS-34 rotor) for 30 minutes. The precipitate was taken up in 30 ml of 10 mM tris/hepes buffer (pH 7.4)/300 mM mannitol and homogeneously resuspended by 20 strokes in a Potter Elvejhem homogenizer at 1,000 rpm. After centrifugation at 48,000×g (20,000 rpm, SS-34 rotor) for 30 minutes, the precipitate was taken up in 0.5 to 2 ml of tris/hepes buffer (pH 7.4)/280 mM mannitol (final concentration 20 mg/ml) and resuspended with the aid of a tuberculin syringe using a 27 gauge needle. The vesicles were either used immediately after preparation for transport investigations or stored at -196° C. in liquid nitrogen in 4 mg portions.
The absorption of substrates into brush-border membrane vesicles was determined by means of the so-called membrane filtration technique. 10 μl of the vesicle suspension (100 μg of protein) were pipetted on the wall of a polystyrene incubation tube (11×70 mm) as a drop which contained the incubation medium together with the corresponding ligands (90 μl ). […] The incubation medium was filtered through a polyvinylidene fluoride membrane filter (SYHV LO 4NS, 0.45 μm, 4 mm .phi., Millipore, Eschborn, Federal Republic of Germany). The transport measurement was begun by mixing the vesicles with the incubation medium. […] After the desired incubation time (customarily 1 min), the transport was stopped by addition of 1 ml of ice-cold stop solution (10 mM tris/hepes, (pH 7.4)/150 mM KCl). The resulting mixture was immediately filtered off with suction in a vacuum of 25 to 35 mbar through a membrane filter made of cellulose nitrate (ME 25, 0.45 μm, 25 mm diameter, Schleicher & Schuell, Dassell, Federal Republic of Germany). The filter was subsequently washed with 5 ml of ice-cold Stop solution.

[1] = Na+-dependent transport component, 50 μM taurocholate

Work on `C[C@H](CCC(=O)NCCS(=O)(=O)O)[C@H]1CC[C@H]2[C@@H]3[C@H](O)C[C@@H]4C[C@@H](OCCNC(=O)CCCc5ccc(N(CCCl)CCCl)cc5)CC[C@]4(C)[C@H]3C[C@H](O)[C@]12C` [Example 67] yielded an IC50 of 47.5 µM, an IC25 [1] of 24 µM and an IC75 [1] of 270 µM.
